2 compounds from article PMC9496321, “6-Furopyridine Hexamethylene Amiloride Is a Non-Selective P2X7 Receptor Antagonist” (Biomolecules, 2022) can be followed below.

For one test, the target named is T1, mP2X7 (Mus musculus, UniProt Q9Z1M0).
T1 construct: expressed in transfected cells; host or cells: HEK293 cells, transient transfection, GFP+ cells gated
T1 sequence (Q9Z1M0 1-595): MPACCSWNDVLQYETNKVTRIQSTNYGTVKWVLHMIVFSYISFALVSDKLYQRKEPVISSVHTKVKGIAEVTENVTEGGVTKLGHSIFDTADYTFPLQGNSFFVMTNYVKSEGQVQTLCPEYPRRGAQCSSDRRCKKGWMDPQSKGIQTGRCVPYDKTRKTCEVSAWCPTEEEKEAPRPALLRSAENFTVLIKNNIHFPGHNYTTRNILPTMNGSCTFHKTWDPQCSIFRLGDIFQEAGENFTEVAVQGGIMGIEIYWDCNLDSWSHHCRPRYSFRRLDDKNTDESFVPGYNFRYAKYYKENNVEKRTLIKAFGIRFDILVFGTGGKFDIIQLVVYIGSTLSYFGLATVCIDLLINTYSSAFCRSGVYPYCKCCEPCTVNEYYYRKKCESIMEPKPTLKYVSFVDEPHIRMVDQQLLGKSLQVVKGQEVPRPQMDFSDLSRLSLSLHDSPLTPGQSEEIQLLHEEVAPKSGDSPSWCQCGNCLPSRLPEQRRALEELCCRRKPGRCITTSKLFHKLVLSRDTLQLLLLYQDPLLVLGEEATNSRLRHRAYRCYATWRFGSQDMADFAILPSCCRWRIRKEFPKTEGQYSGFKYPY
Briefly: ATP-induced ethidium+ uptake in transfected HEK-mP2X7 cells. The test is classed as cell-based, murine. On the procedure: (§1) HEK293 cells were plated at 3.5 × 10^5 cells/well in 2 mL of complete DMEM/F12 medium and incubated (37 °C, 95% air/5% CO2, overnight). Cells were transfected with mP2X7-GFP (HEK-mP2X7), cP2X7-GFP (HEK-cP2X7) or hP2X4-EmGFP (HEK-hP2X4) plasmids, or mock transfected with an equivalent volume of sterile Milli-Q water (Merck Millipore, Burlington, NJ, USA), using Lipofectamine 3000 according to the manufacturer’s instructions. Cells were used for assays 48 h post-transfection. To determine transfection efficiency, cells were washed twice with D-PBS and data collected with an LSR Fortessa X-20 flow cytometer (BD Biosciences). The proportion of GFP positive cells was determined using FlowJo software v8.7.1 (BD Biosciences).
(§2) ATP-mediated uptake assays were conducted as described with either ethidium bromide or YO-PRO-1 iodide. Briefly, RPMI8226, HEK-hP2X7, HEK-mP2X7, HEK-cP2X7 or cryopreserved human peripheral blood mononuclear cells (PBMCs) were washed thrice with LDM (300× g, 5 min), resuspended in LDM and 1 × 10^6 cells were added to individual tubes. Cells were pre-incubated in the absence of compound (37 °C, 5 min) or in the presence of compound or vehicle (DMSO) (37 °C, 15 min) as indicated. […] An equal volume of ice-cold Mg^2+ stop solution was added and cells centrifuged (300× g, 5 min). Cells were washed twice in LDM (300× g, 5 min), resuspended and data were collected with an LSR Fortessa X-20 flow cytometer. MFI of ethidium^+ or YO-PRO-1^2+ was determined using FlowJo.

Test [1] has as its system P2X7-mediated CD23 shedding. Briefly: CD23 shedding assay in RPMI8226 cells. It is filed as cell-based, human. The procedure: CD23 shedding from RPMI8226 cells was conducted as described, except using LDM. Briefly, 1 × 10^6 cells in LDM were added to individual tubes and pre-incubated in the absence or presence of compound (or vehicle) (37 °C, 15 min). […] Cells were stained in the absence or presence of anti-CD23 mAb with 7AAD (on ice, 30 min, dark), washed once with D-PBS and data were collected using an LSR Fortessa X-20 flow cytometer. CD23 MFI on live cells was determined using FlowJo, with CD23 expression defined as the difference in MFI between cells stained in the presence or absence of anti-CD23 mAb. ATP-induced shedding was normalised to the maximal ATP-induced response in each experiment.

In another test the target is T2, cP2X7 (Canis lupus familiaris, UniProt B0FLR1).
T2 sequence (B0FLR1 1-595): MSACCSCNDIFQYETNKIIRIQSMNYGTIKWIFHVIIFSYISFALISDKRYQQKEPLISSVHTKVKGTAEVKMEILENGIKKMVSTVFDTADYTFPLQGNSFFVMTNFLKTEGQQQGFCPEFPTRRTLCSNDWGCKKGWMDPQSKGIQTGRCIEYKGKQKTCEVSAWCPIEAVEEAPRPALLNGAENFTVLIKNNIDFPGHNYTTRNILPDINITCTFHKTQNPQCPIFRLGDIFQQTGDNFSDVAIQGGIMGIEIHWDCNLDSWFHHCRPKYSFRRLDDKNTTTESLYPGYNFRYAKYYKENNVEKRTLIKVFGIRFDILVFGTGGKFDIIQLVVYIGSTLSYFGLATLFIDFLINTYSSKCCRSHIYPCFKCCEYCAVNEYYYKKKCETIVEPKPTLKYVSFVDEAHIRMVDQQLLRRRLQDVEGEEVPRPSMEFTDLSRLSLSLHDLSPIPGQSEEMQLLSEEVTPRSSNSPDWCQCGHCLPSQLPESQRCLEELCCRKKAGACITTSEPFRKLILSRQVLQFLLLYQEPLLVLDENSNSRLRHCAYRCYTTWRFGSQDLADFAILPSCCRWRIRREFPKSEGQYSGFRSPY
Briefly: ATP-induced ethidium+ uptake in transfected HEK-cP2X7 cells. It is filed as cell-based, canine. On the procedure:
as §1, §2

By IC50 is commonly meant the point on the concentration scale where inhibition reaches its midpoint. On to `N=C(N)NC(=O)c1nc(-c2cc3cnccc3o2)c(N2CCCCCC2)nc1N` [6-FPHMA, 6-furopyridine-substituted 5-(N,N-hexamethylene) amiloride], for which the “blockade of mP2X7-mediated dye uptake” value on mP2X7 (100 μM compound, 360 μM ATP) came out at 96%. Further, the “activity against murine P2X7 relative to hP2X7 and cP2X7” value on mP2X7 (comparison of IC50 values) is “ten-fold less active”. In addition, the half-inhibitory concentration (IC50) on mP2X7 (read-out: IC50, mP2X7-mediated dye uptake) turned out to be 23 ± 2.4 µM; in test [1] (Homo sapiens, RPMI-8226, read-out: IC50, ATP-induced CD23 shedding) it was 2.3 ± 0.5 µM; on cP2X7 (read-out: IC50, cP2X7-mediated dye uptake), 1.28 ± 0.47 µM. Further, the “blockade of ATP-induced CD23 shedding” value in test [1] (30 μM compound, 200 μM ATP) is on record as 97%. For the same compound, the inhibition at 30 µM on cP2X7 (read-out: blockade of cP2X7-mediated dye uptake) amounted to 100%.

What is called EC50 is the concentration needed to bring the measured effect to its halfway point. In the case of `Nc1ncnc2c1ncn2[C@@H]1O[C@H](COP(=O)(O)OP(=O)(O)OP(=O)(O)O)[C@@H](O)[C@H]1O` [ATP, adenosine 5′-triphosphate], the EC50 was found to be 364 ± 48 µM on mP2X7 (GFP+ HEK-mP2X7 cells); 112 ± 28 µM in test [1] (Homo sapiens, RPMI-8226, read-out: EC50 of ATP, CD23 shedding, RPMI8226 cells); 424 ± 67 µM at cP2X7. The “ATP concentration giving maximum response, ethidium+ uptake” value at mP2X7 (HEK-mP2X7 cells) and on cP2X7 (HEK-cP2X7 cells) was 2 mM in each case. Also, in test [1] (RPMI8226 cells), the “ATP concentration giving maximal CD23 shedding” value was 200 µM.
